Patent US20140079636A1, “TARGETED THERAPEUTICS” (priority 2012, published 2014)

Assay: Tissue distribution of SDC-TRAPs in plasma and tumor (Example 14 extraction procedure)
Conditions: in vivo; Tissue Distribution Data for SDC-TRAP-0076; Time 6 h; read-out: Tumor/Plasma Ratio
Procedure: In order to test the ability SDC-TRAP molecules of the invention to be specifically targeted to tumor cells, the following experiment was performed.
Using the 10 mM stock solutions of the HDC compound and its Hsp90i and drug conjugate in DMSO, spiking solutions were prepared at 0.025, 0.05, 0.1, 0.5, 1, 5, 10, 50, 100, 250, and 500 μM in DMSO. 5 μL of each spiking solution was added to a 96-deep well plate. 50 μL of matrix (plasma thawed over ice or homogenized blank tumor).
Quality control standards were prepared from 5 μL of 0.1, 1, and 10 μM calibration standard spiking solution added in triplicate into 96-deep well plate and adding 50 μL of matrix (plasma or homogenized tumor).
To prepare test samples, test plasma was diluted as needed using blank plasma. Tumor samples were pulverized in liquid nitrogen, weighed, and homogenized in PBS at 5× volume to sample weight. 50 μL of unknown plasma or homogenized tumor sample was mixed with 5 μL of DMSO. The samples were extracted by precipitating calibration standards, QC standards, and unknown samples with 200 μL of internal standard solution. The samples were mixed by vortex at room temperature for approximately 1.5 minutes, then centrifuge at 2-8° C. 150 μL of supernatant was collected and 25 μL of water added. Samples were mixed and analyzed by LC-MS/MS.

CCNC(=O)c1nnc(-c2cc(C(C)C)c(O)cc2O)n1-c1ccc(CN2CCC(C(=O)N3CCC(C(=O)OC4(CC)C(=O)OCc5c4cc4n(c5=O)Cc5c-4nc4ccc(O)cc4c5CC)CC3)CC2)cc1 (stereo not shown) [SDC-TRAP-0076, 4,11-diethyl-9-hydroxy-3,14-dioxo-3,4,12,14-tetrahydro-1H-pyrano[3′,4′:6,7]indolizino[1,2-b]quinolin-4-yl 1-(1-(4-(3-(2,4-dihydroxy-5-isopropylphenyl)-5-(ethylcarbamoyl)-4H-1,2,4-triazol-4-yl)benzyl)piperidine-4-carbonyl)piperidine-4-carboxylate]
Kp: 7.25
